From PubChem BioAssay AID1648 (Sanford-Burnham Center for Chemical Genomics, 2009)
The source made the active and inactive calls. How the calls were made is not given here.

Biological target: Serine/threonine-protein kinase mTOR (Homo sapiens) (UniProt P42345)
Experiment: binders of mTOR FRB domain, biophysical, NMR (AID 1648)
Conditions: NMR binding to FRB domain, chemical shift

Sequence of Serine/threonine-protein kinase mTOR (Homo sapiens) (P42345 2015-2114): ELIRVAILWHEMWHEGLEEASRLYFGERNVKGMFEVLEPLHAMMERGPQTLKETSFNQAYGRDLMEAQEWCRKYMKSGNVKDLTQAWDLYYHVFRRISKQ

| SMILES | Kd |
| --- | --- |
| NC1=NCc2ccccc21 | > 4 mM (inactive) |
| OC[C@H]1O[C@@H](O[C@H]2[C@H](O)[C@@H](O)[C@@H](O)O[C@@H]2CO)[C@H](O)[C@@H](O)[C@@H]1O | > 4 mM (inactive) |
| Cn1c(=O)c2[nH]cnc2n(C)c1=O | > 4 mM (inactive) |
| NCCc1cnc[nH]1 | > 4 mM (inactive) |
| COC(=O)c1sccc1S(=O)(=O)N1CCCC1 | > 4 mM (inactive) |
| S=c1[nH]cnc2sccc12 | > 4 mM (inactive) |
| O=C(O)CSc1nc2ccccc2c(=O)[nH]1 | > 4 mM (inactive) |
| O=C(Nn1cnnc1)c1cc2c(s1)CCCCC2 | > 4 mM (inactive) |
| CN1CCN(S(=O)(=O)c2ccc(=O)[nH]c2)CC1 | > 4 mM (inactive) |
| O=c1[nH]cc(N=Cc2ccc(F)cc2)c(=O)[nH]1 | > 4 mM (inactive) |
| [O-][n+]1onc2c1CCc1c-2nc(-c2ccccc2)n1O | > 4 mM (inactive) |
| CC1NC(C(=O)O)Cc2c1[nH]c1ccccc21 (configuration not stated) | > 4 mM (inactive) |
| Cc1occc1C(=O)Nc1sccc1C(N)=O | > 4 mM (inactive) |
| CCOC(=O)C1CCN(c2ccc(C#N)cc2)CC1 | > 4 mM (inactive) |
| Cc1ccccc1CSc1nncn1N | > 4 mM (inactive) |
| CCc1nnc(NC(C)=O)s1 | > 4 mM (inactive) |
| Nc1cccc2cccnc12 | > 4 mM (inactive) |
| CSc1ccccc1NC(=O)c1ccncc1 | > 4 mM (inactive) |
| CC1(C)Cc2c(C#N)c(N)n(-c3ccccc3)c(=O)c2CO1 | > 4 mM (inactive) |
| CSc1nc(C)c(Oc2ccccc2)c(=O)n1C | > 4 mM (inactive) |
| Nc1nc2ccc(N3CCOCC3)cc2s1 | > 4 mM (inactive) |
| Cn1ncc(CO)c1-c1ccccc1 | > 4 mM (inactive) |
| c1cc(C(N2CCOCC2)N2CCOCC2)ccn1 | > 4 mM (inactive) |
| O=C1CCCN1c1ccc(S(=O)O)cc1 | > 4 mM (inactive) |
| CC(=O)O[C@H]1C[C@@H](OC(C)=O)C(C)(C)C2C[C@@H](O)[C@]3(C)C(CC[C@@]4(C)[C@H](c5ccoc5)OC(=O)[C@H]5O[C@]543)[C@]21C (some centres not stated) | > 4 mM (inactive) |

| SMILES | Kd |
| --- | --- |
| O=C1C=C(O)c2ccccc2C1=O | > 4 mM (inactive) |
| OCc1csc(-c2ccccc2)n1 | > 4 mM (inactive) |
| CC(C)(C)NC(=O)CN1C(=O)c2ccccc2S1(=O)=O | > 4 mM (inactive) |
| COc1ccc(N=C2NC(=O)CS2)cc1 | > 4 mM (inactive) |
| O=C1CSC(=O)N1CN1CCOCC1 | > 4 mM (inactive) |
| CN(C)/C=N/S(=O)(=O)c1ccccc1 | > 4 mM (inactive) |
| O=C1Nc2ccccc2C1(O)Cc1ccncc1 (configuration not stated) | > 4 mM (inactive) |
| O=C(Cc1cccs1)N1CCOCC1 | > 4 mM (inactive) |
| O=C(NCc1cccs1)c1nc2ncccn2n1 | > 4 mM (inactive) |
| CCOC(=O)c1c(C)nc2ccccn12 | > 4 mM (inactive) |
| O=C(CSc1ncn[nH]1)c1ccc2c(c1)OCO2 | > 4 mM (inactive) |
| COCc1cc(=O)oc2cc(O)c(Cl)cc12 | > 4 mM (inactive) |
| CCc1noc(C)c1C(=O)N1CCCC1 | > 4 mM (inactive) |
| c1ccc(-n2nnnc2-n2cnc3ccccc32)cc1 | > 4 mM (inactive) |
| O=C(c1cc2ccccc2o1)N1CCCCCC1 | > 4 mM (inactive) |
| COc1cc([C@@H]2c3cc4c(cc3[C@H](O)[C@H]3COC(=O)[C@H]23)OCO4)cc(OC)c1OC | > 4 mM (inactive) |
| COCCn1c(SC)nc2c1c(=O)[nH]c(=O)n2C | > 4 mM (inactive) |
| Cc1cc(F)c(F)c(C(=O)NC2CC2)c1Cl | > 4 mM (inactive) |
| O=C1CNC(=O)/C1=C/c1ccc(O)cc1 | > 4 mM (inactive) |
| COC(=O)c1cnccc1C(F)(F)F | > 4 mM (inactive) |
| Cc1ccc(-n2cnnn2)c2cccnc12 | > 4 mM (inactive) |
| Cc1nnc(N2CCN(c3ccccc3)CC2)[nH]c1=O | > 4 mM (inactive) |
| COc1ccc2c3c1O[C@H]1C[C@@H](O)C=C[C@@]31CCN(C)C2 | > 4 mM (inactive) |
| CSCCNC(C)=O | > 4 mM (inactive) |
| COC(=O)N1CCN(c2ccc(C(C)=O)cc2)CC1 | > 4 mM (inactive) |

| SMILES | Kd |
| --- | --- |
| CN1CCN(C(=O)C2CCCNC2)CC1 (configuration not stated) | > 4 mM (inactive) |
| Cc1cc(=O)n(CC(C)C)c(O)c1C#N | > 4 mM (inactive) |
| CCSc1nc(N)c(NC(=O)c2ccco2)c(=O)[nH]1 | > 4 mM (inactive) |
| COCC(=O)Nc1ccc(F)cc1F | > 4 mM (inactive) |
| O=c1c(-c2cccs2)[n+]([O-])c2ccccc2n1O | > 4 mM (inactive) |
| CC(=O)c1cccc(N=C2NC(=O)CS2)c1 | > 4 mM (inactive) |
| Nc1ncccc1OCc1ccccc1 | > 4 mM (inactive) |
| CNC(=O)C(=O)Nc1cccc(Cl)c1 | > 4 mM (inactive) |
| Cc1ccc(N2C(=O)CC(Sc3ncn[nH]3)C2=O)cc1 (configuration not stated) | > 4 mM (inactive) |
| Cc1c(C(=O)NC2=NCCS2)oc2ccccc12 | > 4 mM (inactive) |
| Cc1nn2c3ccccc3nc2n(Cc2ccccc2)c1=O | > 4 mM (inactive) |
| O=c1ccc2ccccc2o1 | > 4 mM (inactive) |
| O=C(NCc1ccccc1Br)c1ccco1 | > 4 mM (inactive) |
| Oc1ccccc1-c1cc(C(F)(F)F)[nH]n1 | > 4 mM (inactive) |
| COc1c(F)c(F)c(-c2csc(N)n2)c(F)c1F | > 4 mM (inactive) |
| Cn1cnc2c(=O)[nH]cc([N+](=O)[O-])c21 | > 4 mM (inactive) |
| N=C1/C(=C\c2ccccc2)C(=O)N=C2SC=NN12 | > 4 mM (inactive) |
| O=C(O)Cc1csc(-c2ccccc2)n1 | > 4 mM (inactive) |
| Cc1n[nH]c(=S)n1-c1ccc(C(=O)O)cc1 | > 4 mM (inactive) |
| CC(C)=CCC1=C(O)c2ccccc2C(=O)C1=O | > 4 mM (inactive) |
| N#CCSc1nc2ccccc2c(=O)n1-c1ccccc1 | > 4 mM (inactive) |
| COc1ccc2c(c1)O[C@H]1c3ccc(OC)cc3OC[C@@H]21 | > 4 mM (inactive) |
| O=C(Nc1ccccc1CO)c1ccccc1F | > 4 mM (inactive) |
| O=C(c1ccc(F)cc1)N1CCOCC1 | > 4 mM (inactive) |
| NC1=NC(=O)C(Cc2ccccc2)S1 (configuration not stated) | > 4 mM (inactive) |

| SMILES | Kd |
| --- | --- |
| COCC(=O)Nc1cccc(Br)c1 | > 4 mM (inactive) |
| O=C(Cc1cccs1)Nc1nncs1 | > 4 mM (inactive) |
| O=C(NC1=NCCS1)c1ccc(Cl)s1 | > 4 mM (inactive) |
| CCn1ncc(Cl)c1C(=O)Nc1ccncc1 | > 4 mM (inactive) |
| C=C1CCC2[C@](C)(CO)[C@H](O)CC[C@@]2(C)[C@@H]1C/C=C1/C(=O)OC[C@H]1O (some centres not stated) | > 4 mM (inactive) |
| CC(=O)NC(O)C(=O)c1cccs1 (configuration not stated) | > 4 mM (inactive) |
| CC(NC(=O)c1ccco1)C1CCCO1 (configuration not stated) | > 4 mM (inactive) |
| O=C1c2ccccc2C(=O)N1/N=C/c1ccc[nH]1 | > 4 mM (inactive) |
| Cc1cc(C)cc(OC(=O)N2CCOCC2)c1 | > 4 mM (inactive) |
| COc1ccc(-c2nnsc2N)cc1 | > 4 mM (inactive) |
| CCOC(=O)c1c(C)n([O-])c2ccccc2[n+]1=O | > 4 mM (inactive) |
| Oc1ccc2c(c1)OCC1(O)Cc3cc(O)c(O)cc3C21 (configuration not stated) | > 4 mM (inactive) |
| FC(F)(F)c1nnc2ccc(N3CCOCC3)nn12 | > 4 mM (inactive) |
| O=C(Nc1nnc(C(F)(F)F)s1)c1cccnc1 | > 4 mM (inactive) |
| CC(=O)Nc1c(C#N)c(C(C)(C)C)cn1C | > 4 mM (inactive) |
| O=c1ccc2nc3ccccc3c(=O)n2[nH]1 | > 4 mM (inactive) |
| O=C1C2C3C=CC(O3)C2C(=O)N1c1ccccc1 (configuration not stated) | > 4 mM (inactive) |
| O=C(c1ccccc1)N1CCOCC1 | > 4 mM (inactive) |
| Nc1cccc(C(=O)c2ccccc2)c1 | > 4 mM (inactive) |
| Cc1ccc2c(C)c(C(=O)Nc3nnc(C)s3)oc2c1 | > 4 mM (inactive) |
| Cc1ccc(NC(=O)N2CCC(C(N)=O)CC2)cc1 | > 4 mM (inactive) |
| O=C(CC1Nc2ccccc2NC1=O)Nc1ccc(O)cc1 (configuration not stated) | > 4 mM (inactive) |
| Cc1noc(C)c1C(=O)N1CCc2ccccc2C1 | > 4 mM (inactive) |
| CCCCC(Nc1n[nH]c(=O)[nH]c1=O)C(=O)O (configuration not stated) | > 4 mM (inactive) |
| COc1ccc2c(c1)OC/C(=C/c1ccc(O)c(O)c1)C2=O | > 4 mM (inactive) |

| SMILES | Kd |
| --- | --- |
| CC1(C)C2C[C@@H](O)[C@]3(C)C(CC[C@@]4(C)[C@H](c5ccoc5)OC(=O)[C@H]5O[C@]543)[C@@]2(C)[C@@H](O)C[C@H]1O (some centres not stated) | > 4 mM (inactive) |
| O=c1ccn(Cc2ccccc2)c(=O)[nH]1 | > 4 mM (inactive) |
| CC(=O)N(c1ccccc1)C1C=CS(=O)(=O)C1 (configuration not stated) | > 4 mM (inactive) |
| COC(=O)CCC(C)[C@H]1CCC2C3C(C[C@H](O)[C@@]21C)[C@@]1(C)CC[C@@H](O)C[C@H]1C[C@H]3O (some centres not stated) | > 4 mM (inactive) |
| CN1CCC(NC(=O)c2ccccc2[N+](=O)[O-])CC1 | > 4 mM (inactive) |
| Cc1oc(-c2ccccc2)cc1C(N)=O | > 4 mM (inactive) |
| O=C(Cc1ccccc1)Nc1c[nH]c(=O)[nH]c1=O | > 4 mM (inactive) |
| O=C(O)C1Cc2c([nH]c3ccccc23)CN1 (configuration not stated) | > 4 mM (inactive) |
| O=C(NC(=S)NC1CCSC1=O)c1ccco1 (configuration not stated) | > 4 mM (inactive) |
| Cc1nccc2c1[nH]c1ccccc12 | > 4 mM (inactive) |
| NC(=O)NC1NC(=O)NC1=O (configuration not stated) | > 4 mM (inactive) |
| O=c1cnnc(NCc2ccc(F)cc2)[nH]1 | > 4 mM (inactive) |
| CCn1c(=O)cc(N2CCC3(CC2)OCCO3)[nH]c1=O | > 4 mM (inactive) |
| NC(=O)c1ccc(-c2ccccn2)s1 | > 4 mM (inactive) |
| O=c1[nH]cnc2c1nnn2Cc1ccccc1 | > 4 mM (inactive) |
| CCN1CCN(c2ncnc3c2nnn3C)CC1 | > 4 mM (inactive) |
| COC(CC(=O)O)c1nc2ccccc2s1 (configuration not stated) | > 4 mM (inactive) |
| COc1cc2cc3c4cc(OC)c(OC)cc4cc[n+]3c(C)c2cc1OC | > 4 mM (inactive) |
| O=C(Nc1nncs1)Oc1ccccc1 | > 4 mM (inactive) |
| CCOC(=O)c1csc(N)n1 | > 4 mM (inactive) |
| O=C(O)/C=C(\CC(=O)O)C(=O)O | > 4 mM (inactive) |
| CCOc1ccc(C(=O)c2ccc(O)c(O)c2O)cc1 | > 4 mM (inactive) |
